Results from US8524809B2, “Low odor compositions and methods to attain low odor compositions” (Rohm and Haas Company, priority 2010, dated 2013).

Key:
[1] = test system: N51032; test: Small molecule inhibitors: EA content of latex containing N51032; type: biochemical
Description: (§1) In another embodiment, deactivation of the carboxylesterase enzyme may be achieved by the addition of a small molecule inhibitor, as shown for CALBL and N51032 in Tables 13 and 14, below. […] The small molecule inhibitor and CALBL were added simultaneously at the time t=0. In the following tables, the potential small molecule inhibitors are as follows: […]

[2] = molecular target: T1, CALBL (Moesziomyces antarcticus, UniProt P41365); test: Small molecule inhibitors: EA content of latex containing CALBL; type: biochemical; settings: for Inhibition of CALBL (in words): inhibitor 1.0%
T1 construct: purchased Novozymes, Bagsvaerd, Denmark Novozym CALB L
T1 sequence (P41365 26-342): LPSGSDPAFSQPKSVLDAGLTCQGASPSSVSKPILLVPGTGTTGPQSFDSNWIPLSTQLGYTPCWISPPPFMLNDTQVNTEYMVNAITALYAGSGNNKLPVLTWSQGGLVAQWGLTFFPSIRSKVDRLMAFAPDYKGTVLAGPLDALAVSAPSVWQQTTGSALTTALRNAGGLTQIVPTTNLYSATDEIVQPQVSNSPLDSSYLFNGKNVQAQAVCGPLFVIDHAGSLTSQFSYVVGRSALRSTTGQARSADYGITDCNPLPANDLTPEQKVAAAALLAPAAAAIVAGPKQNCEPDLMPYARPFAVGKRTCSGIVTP
Description: as §1

[3] = AC-261 latex, N51032 50 ppm, inhibitor 1% added simultaneously (Control: none), 0 hr
[4] = AC-261 latex, N51032 50 ppm, inhibitor 1% added simultaneously (Control: none), 24 hr
[5] = AC-261 latex, N51032 50 ppm, inhibitor 1% added simultaneously (Control: none), 72 hr
[6] = AC-261 latex, N51032 50 ppm, inhibitor 1% added simultaneously (Control: none), 168 hr
[7] = N51032 5 ppm, inhibitor 0.001%, 0 hr
[8] = N51032 5 ppm, inhibitor 0.001%, 120 hr
[9] = N51032 5 ppm, inhibitor 0.001%, 168 hr
[10] = N51032 5 ppm, inhibitor 0.001%, 384 hr
[11] = N51032 5 ppm, inhibitor 0.001%, 480 hr
[12] = N51032 5 ppm, inhibitor 0.01%, 0 hr
[13] = N51032 5 ppm, inhibitor 0.01%, 120 hr
[14] = N51032 5 ppm, inhibitor 0.01%, 168 hr
[15] = N51032 5 ppm, inhibitor 0.01%, 384 hr
[16] = N51032 5 ppm, inhibitor 0.01%, 480 hr
[17] = N51032 5 ppm, inhibitor 0.1%, 0 hr
[18] = N51032 5 ppm, inhibitor 0.1%, 120 hr
[19] = N51032 5 ppm, inhibitor 0.1%, 168 hr
[20] = N51032 5 ppm, inhibitor 0.1%, 384 hr
[21] = N51032 5 ppm, inhibitor 0.1%, 480 hr
[22] = AC-261 latex, CALBL 60 ppm, inhibitor 1.0% added simultaneously (Control: none), 0 hr
[23] = AC-261 latex, CALBL 60 ppm, inhibitor 1.0% added simultaneously (Control: none), 24 hr
[24] = AC-261 latex, CALBL 60 ppm, inhibitor 1.0% added simultaneously (Control: none), 72 hr
[25] = AC-261 latex, CALBL 60 ppm, inhibitor 1.0% added simultaneously (Control: none), 168 hr
[26] = CALBL 6 ppm, inhibitor 0.001%, 0 hr
[27] = CALBL 6 ppm, inhibitor 0.001%, 120 hr
[28] = CALBL 6 ppm, inhibitor 0.001%, 168 hr
[29] = CALBL 6 ppm, inhibitor 0.001%, 384 hr
[30] = CALBL 6 ppm, inhibitor 0.001%, 480 hr
[31] = CALBL 6 ppm, inhibitor 0.01%, 0 hr
[32] = CALBL 6 ppm, inhibitor 0.01%, 120 hr
[33] = CALBL 6 ppm, inhibitor 0.01%, 168 hr
[34] = CALBL 6 ppm, inhibitor 0.01%, 384 hr
[35] = CALBL 6 ppm, inhibitor 0.01%, 480 hr
[36] = CALBL 6 ppm, inhibitor 0.1%, 0 hr
[37] = CALBL 6 ppm, inhibitor 0.1%, 120 hr
[38] = CALBL 6 ppm, inhibitor 0.1%, 168 hr
[39] = CALBL 6 ppm, inhibitor 0.1%, 384 hr
[40] = CALBL 6 ppm, inhibitor 0.1%, 480 hr

Row | Compound | EA content [1, 3] [ppm] | EA content [1, 4] [ppm] | EA content [1, 5] [ppm] | EA content [1, 6] [ppm] | EA content [1, 7] [ppm] | EA content [1, 8] [ppm] | EA content [1, 9] [ppm] | EA content [1, 10] [ppm] | EA content [1, 11] [ppm] | EA content [1, 12] [ppm] | EA content [1, 13] [ppm] | EA content [1, 14] [ppm] | EA content [1, 15] [ppm] | EA content [1, 16] [ppm] | EA content [1, 17] [ppm] | EA content [2, 22] [ppm] | EA content [2, 23] [ppm] | EA content [2, 24] [ppm] | EA content [2, 25] [ppm] | Inhibition of CALBL (in words) ([2]; CALBL 60 ppm) | further results
1 | CC(C)CB(O)O [2MPB, (2-methylpropyl) boronic acid] | 117 | 92 | 99 | 79 | 42 | 24 | 22 | 8 | 6 | 37 | 25 | 19 | 6 | 5 | 43 | 105 | 95 | 102 | 104 | effective in inhibiting the carboxylesterase enzyme | EA content [1, 18]: 34 ppm; EA content [1, 19]: 27 ppm; EA content [1, 20]: 22 ppm; EA content [1, 21]: 20 ppm; EA content [2, 26]: 44; EA content [2, 27]: 32; EA content [2, 28]: 23; EA content [2, 29]: 10; EA content [2, 30]: 8; EA content [2, 31]: 43; EA content [2, 32]: 28; EA content [2, 33]: 24; EA content [2, 34]: 13; EA content [2, 35]: 11; EA content [2, 36]: 43; EA content [2, 37]: 34; EA content [2, 38]: 25; EA content [2, 39]: 15; EA content [2, 40]: 13
2 | OB(O)C1CCCCC1 [CBA, cyclohexylboronic acid] | 117 | 96 | 109 | 79 |  |  |  |  |  |  |  |  |  |  |  | 102 | 70 | 55 | 24 | some ability to inhibit the CALBL enzyme | 
3 | CC(C)(C)CB(O)O [NPB, Neopentylboronic acid] | 116 | 49 | 30 | 6 |  |  |  |  |  |  |  |  |  |  |  | 107 | 21 | 0 | 0 | completely ineffective as an inhibitor of CALBL | 
4 | OB(O)c1ccccc1 [PBA, phenylboronic acid] | 116 | 116 | 111 | 117 | 46 | 36 | 34 | 22 | 19 | 45 | 41 | 39 | 34 | 34 | 46 | 108 | 103 | 116 | 108 | effective in inhibiting the carboxylesterase enzyme | EA content [1, 18]: 34 ppm; EA content [1, 19]: 41 ppm; EA content [1, 20]: 38 ppm; EA content [1, 21]: 39 ppm; Inhibition of N51032 (in words) ([1]; inhibitor 1%, N51032 50 ppm): effective in inhibiting the carboxylesterase enzyme; EA content [2, 26]: 48; EA content [2, 27]: 30; EA content [2, 28]: 25; EA content [2, 29]: 11; EA content [2, 30]: 9; EA content [2, 31]: 44; EA content [2, 32]: 32; EA content [2, 33]: 26; EA content [2, 34]: 15; EA content [2, 35]: 15; EA content [2, 36]: 39; EA content [2, 37]: 35; EA content [2, 38]: 35; EA content [2, 39]: 29; EA content [2, 40]: 29
5 | CCCCCCCCCCS(=O)(=O)[O-].[Na+] [S-1-DS, Sodium 1-decane-sulfonate] | 115 | 73 | 79 | 77 |  |  |  |  |  |  |  |  |  |  |  | 114 | 73 | 36 | 17 | some ability to inhibit the CALBL enzyme | 
